Data reported in patent US20250270212A1, “CHIMERIC COMPOUNDS USEFUL IN TREATING DISEASES” (Padarn Therapeutics, Inc., priority 2021, published 2025).

Experiments:
[1] = target: recombinant PARP1 (AA662-1014) protein (Homo sapiens (Human), UniProt P09874); assay: Tracer displacement fluorescence polarization assay; details: displacement of AlexaFluor488 tracer from NAD+-binding site, PARP1 25 nM
Description: Example B. Tracer Displacement Fluorescence Polarization Assays
Displacement of AlexaFlour488 marked tracer from the NAD+-binding site of recombinant PARP1 (AA662-1014) protein (OriGene, Cat #: AR09368PU-L) was measured in vitro using Fluorescence polarization assay. The reaction was carried out in assay buffer (50 mM TRIS-HCl pH 7.4-7.8, 150 mM NaCl, 10 mM MgCl2, 0.001% Triton-X). 2×PARP1 (final concentration 25 nM) was diluted in 1× Assay buffer and 10 μl of the solution per well was added into 384-well Black Non-Treated Reaction plate (Corning, Cat #4511). Plates were centrifuged for 1 min at 200 g. The compounds were prepared in a 384-well Diamond Well Plate (Axygen, Cat #P-384-120SQ-C-S) as 400× solutions in DMSO and were transferred into Reaction plate using the Biomek FX liquid handling system with intermediate dilution down to 10× working solution in assay buffer in a separate 384-well Diamond Well Plate (Axygen, Cat #P-384-120SQ-C-S) (2 μl per well). Plates were centrifuged for 1 min at 200 g and incubated for 15 min at room temperature in the dark. Then 8 μL per well of 2.5× Tracer AlexaFluor488 (final concentration 1 nM) diluted in 1× Assay buffer was added into Reaction plate. 1× Assay buffer was used to make blank samples for instrument calculations. Plates were incubated for 30 minutes at room temperature in the dark. Fluorescence polarization was measured using Microplate Reader (BMG, ClarioStar Plus). The % tracer displacement was used to calculate the IC50 values. The IC50 values are shown in Table A, wherein “A” corresponds to IC50<0.01 μM, “B” corresponds to 0.01 μM≤IC50<0.1 μM, “C” 0.1 μM≤IC50<[…], and “D” corresponds to […].

[2] = target: recombinant Wee1 protein (Homo sapiens (Human), UniProt P30291); assay: Wee1 enzymatic activity inhibition, ADP-Glo luminescence assay; type: biochemical; details: recombinant Wee1, PolyE4Y1 substrate, 1 h room temperature
Description: Example A. Primary Assay Used to Determine Potency of Wee1 Enzymatic Activity Inhibition
Compound activity was determined using recombinant Wee1 protein (BPS, Cat #40412) and PolyE4Y1 Substrate (Poly(Glu,Tyr) sodium salt, Sigma, Cat #P0275-25MG) in an in vitro enzymatic reaction. The enzymatic assay used to determine activity was a Luminescence assay using a Microplate Reader (BMG, ClarioStar Plus). The enzymatic reaction was carried out in assay buffer (40 mM TRIS-HCl pH 7.4-7.6, 20 mM MgCl2, 0.05 mM DTT, 0.1 mg/ml BSA, 5 mM MnCl2). The compounds were dispensed on a 384 well Diamond Well Plate (Axigen, Cat #P-384-120SQ-C-S) using the Biomek FX liquid handling system at 100× solutions of compounds in DMSO. 2×Wee1-PolyE4Y1 mix (final concentration 0.85 ng/μl of Wee1 and 0.2 μg/μl of PolyE4Y1) was prepared in 1× Assay buffer and 5.5 μl of mixture per well was added into 384w white Reaction plate with NBS (Corning, Cat #4513). 5.5 μl of PolyE4Y1 substrate w/o Wee1 in 1× buffer was used for negative control. Plates were centrifuged for 1 min at 100 g. Next step the Compounds were added to Reaction plate using Biomek station via following steps: 1 μl of 100× compounds (in DMSO) were mixed thoroughly with 49 μl of 2×10 μM ATP in Assay Buffer, then 5.5 μl of this mixture was added to Reaction plate with 5.5 μl of Wee1-PolyE4Y1 mix. Plates were centrifuged for 1 min at 100 g and incubated for 1 h at room temperature. Next 3 μL of ADP-Glo reagent (Promega, ADP-Glo™ Kinase Assay, Cat #V9102) per well was added. Plates were incubated for 30 minutes at room temperature. Then 6 μL of Kinase detection reagent (Promega, ADP-Glo™ Kinase Assay, Cat #V9102) per well was added and the Luminescence was measured using Microplate Reader. The % inhibition was then used to calculate the IC50 values. The IC50 values are shown in Table A, wherein “A” corresponds to IC50<0.01 μM, “B” corresponds to 0.01 μM≤IC50<0.1 μM, “C” 0.1 μM≤IC50<1 μM, and “D” corresponds to […].

Sequence of recombinant Wee1 protein (P30291 whole entry): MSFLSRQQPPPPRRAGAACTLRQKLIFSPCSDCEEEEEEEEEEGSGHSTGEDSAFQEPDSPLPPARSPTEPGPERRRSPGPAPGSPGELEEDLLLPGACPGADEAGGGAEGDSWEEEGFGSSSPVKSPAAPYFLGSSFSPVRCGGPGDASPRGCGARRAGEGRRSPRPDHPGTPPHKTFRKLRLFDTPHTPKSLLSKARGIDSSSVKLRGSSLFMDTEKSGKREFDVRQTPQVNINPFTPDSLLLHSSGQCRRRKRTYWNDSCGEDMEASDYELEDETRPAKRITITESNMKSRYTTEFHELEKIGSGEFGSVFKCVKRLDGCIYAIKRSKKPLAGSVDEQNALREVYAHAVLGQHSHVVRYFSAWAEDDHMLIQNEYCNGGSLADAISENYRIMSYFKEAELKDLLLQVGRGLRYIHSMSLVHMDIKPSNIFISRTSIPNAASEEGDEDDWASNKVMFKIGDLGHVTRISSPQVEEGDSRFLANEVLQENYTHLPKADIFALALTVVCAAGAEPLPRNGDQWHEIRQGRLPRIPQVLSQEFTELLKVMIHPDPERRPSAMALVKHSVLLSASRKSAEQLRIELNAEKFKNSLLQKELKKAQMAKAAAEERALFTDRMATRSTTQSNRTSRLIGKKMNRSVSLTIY
Sequence of recombinant PARP1 (AA662-1014) protein (P09874 662-1014): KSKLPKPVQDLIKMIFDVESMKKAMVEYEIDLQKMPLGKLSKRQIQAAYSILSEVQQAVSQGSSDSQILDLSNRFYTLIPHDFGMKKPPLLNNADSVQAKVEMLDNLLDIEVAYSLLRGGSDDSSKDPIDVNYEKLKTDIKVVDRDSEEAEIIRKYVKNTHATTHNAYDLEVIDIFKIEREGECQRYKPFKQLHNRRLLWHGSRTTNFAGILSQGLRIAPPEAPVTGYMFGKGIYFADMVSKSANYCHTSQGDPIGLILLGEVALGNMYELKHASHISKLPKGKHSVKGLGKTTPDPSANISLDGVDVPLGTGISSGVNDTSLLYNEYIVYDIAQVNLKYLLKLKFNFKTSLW

Row | Structure (SMILES) | EC50 [1] | EC50 [2]
1 | C=CCn1c(=O)c2cnc(N3CCN(C(=O)c4cc(Cc5n[nH]c(=O)c6ccccc56)ccc4F)CC3)nc2n1-c1cccc(C(C)(C)O)n1 [Compound 2, 4-{3-[(4-{2-Allyl-1-[6-(1-hydroxy-1-methylethyl)pyridin-2-yl]-3-oxo-2,3-dihydro-1H-pyrazolo[3,4-d]pyrimidin-6-yl}piperazin-1-yl)carbonyl]-4-fluorobenzyl}phthalazin-1(2H)-one] | 10 to 100 nM | –
2 | C=CCn1c(=O)c2cnc(NC3CCN(C(=O)c4cc(Cc5n[nH]c(=O)c6ccccc56)ccc4F)CC3)nc2n1-c1cccc(C(C)(C)O)n1 [Compound 4, 4-(3-{[4-({2-Allyl-1-[6-(1-hydroxy-1-methylethyl)pyridin-2-yl]-3-oxo-2,3-dihydro-1H-pyrazolo[3,4-d]pyrimidin-6-yl}amino)piperidin-1-yl]carbonyl}-4-fluorobenzyl)phthalazin-1(2H)-one] | 100 to 1000 nM | –
3 | Cn1c(=O)c2cnc(N3CCN(C(=O)c4cc(Cc5n[nH]c(=O)c6ccccc56)ccc4F)CC3)nc2n1-c1ccccn1 [Compound 5, 4-(4-Fluoro-3-{[4-(2-methyl-3-oxo-1-pyridin-2-yl-2,3-dihydro-1H-pyrazolo[3,4-d]pyrimidin-6-yl)piperazin-1-yl]carbonyl}benzyl)phthalazin-1(21)-one] | 10 to 100 nM | –
4 | C=CCn1c(=O)c2cnc(NCCNC(=O)c3cc(Cc4n[nH]c(=O)c5ccccc45)ccc3F)nc2n1-c1cccc(C(C)(C)O)n1 [Compound 6, N-[2-({2-Allyl-1-[6-(1-hydroxy-1-methylethyl)pyridin-2-yl]-3-oxo-2,3-dihydro-1H-pyrazolo[3,4-d]pyrimidin-6-yl}amino)ethyl]-2-fluoro-5-[(4-oxo-3,4-dihydrophthalazin-1-yl)methyl]benzamide] | 100 to 1000 nM | –
5 | Cn1c(=O)c2cnc(Nc3ccc(N4CCN(C(=O)c5cc(Cc6n[nH]c(=O)c7ccccc67)ccc5F)CC4)cc3)nc2n1-c1cccc(C(C)(C)O)n1 [Compound 7, 4-[4-Fluoro-3-({4-[4-({1-[6-(1-hydroxy-1-methylethyl)pyridin-2-yl]-2-methyl-3-oxo-2,3-dihydro-1H-pyrazolo[3,4-d]pyrimidin-6-yl}amino)phenyl]piperazin-1-yl}carbonyl)benzyl]phthalazin-1(2H)-one] | < 10 nM | –
6 | Cn1c(=O)c2cnc(Nc3ccc(N4CCN(Cc5cc(Cc6n[nH]c(=O)c7ccccc67)ccc5F)CC4)cc3)nc2n1-c1cccc(C(C)(C)O)n1 [Compound 8, 4-[4-Fluoro-3-({4-[4-({1-[6-(1-hydroxy-1-methylethyl)pyridin-2-yl]-2-methyl-3-oxo-2,3-dihydro-1H-pyrazolo[3,4-d]pyrimidin-6-yl}amino)phenyl]piperazin-1-yl}methyl)benzyl]phthalazin-1(2H)-one] | 100 to 1000 nM | –
7 | COCCn1c(=O)c2cnc(Nc3ccc(N4CCN(C(=O)c5cc(Cc6n[nH]c(=O)c7ccccc67)ccc5F)CC4)cc3)nc2n1-c1ccccn1 [Compound 9, 4-(4-Fluoro-3-{[4-(4-{[2-(2-methoxyethyl)-3-oxo-1-pyridin-2-yl-2,3-dihydro-1H-pyrazolo[3,4-d]pyrimidin-6-yl]amino}phenyl)piperazin-1-yl]carbonyl}benzyl)phthalazin-1(2H)-one] | < 10 nM | 10 to 100 nM
8 | Cn1c2nc(Nc3ccc(N4CCN(C(=O)c5cc(Cc6n[nH]c(=O)c7ccccc67)ccc5F)CC4)cc3)ncc2c(=O)n1-c1ccccn1 [Compound 12, 4-{4-Fluoro-3-[(4-{4-[(1-methyl-3-oxo-2-pyridin-2-yl-2,3-dihydro-1H-pyrazolo[3,4-d]pyrimidin-6-yl)amino]phenyl}piperazin-1-yl)carbonyl]benzyl}phthalazin-1(2H)-one] | < 10 nM | –
9 | COCCn1c(=O)c2cnc(Nc3ccc(N4CCN(C(=O)c5cc(Cc6n[nH]c(=O)c7ccccc67)ccc5F)CC4)cc3)nc2n1-c1cccc(C(C)(C)O)n1 [Compound 13, 4-(4-Fluoro-3-{[4-(4-{[1-[6-(1-hydroxy-1-methylethyl)pyridin-2-yl]-2-(2-methoxyethyl)-3-oxo-2,3-dihydro-1H-pyrazolo[3,4-d]pyrimidin-6-yl]amino}phenyl)piperazin-1-yl]carbonyl}benzyl)phthalazin-1(2H)-one] | < 10 nM | 10 to 100 nM
10 | C=CCn1c(=O)c2cnc(Nc3ccc(N4CCN(Cc5cc(Cc6n[nH]c(=O)c7ccccc67)ccc5F)CC4)cc3)nc2n1-c1cccc(C(C)(C)O)n1 [Compound 14, 4-[3-({4-[4-({2-Allyl-1-[6-(1-hydroxy-1-methylethyl)pyridin-2-yl]-3-oxo-2,3-dihydro-1H-pyrazolo[3,4-d]pyrimidin-6-yl}amino)phenyl]piperazin-1-yl}methyl)-4-fluorobenzyl]phthalazin-1(2H)-one] | 100 to 1000 nM | 10 to 100 nM
11 | Cn1c2nc(Nc3ccc(N4CCN(C(=O)c5cc(Cn6c(=O)[nH]c(=O)c7c(F)cccc76)ccc5F)CC4)cc3)ncc2c(=O)n1-c1ccccn1 [Compound 17, 5-Fluoro-1-{4-fluoro-3-[(4-{4-[(1-methyl-3-oxo-2-pyridin-2-yl-2,3-dihydro-1H-pyrazolo[3,4-d]pyrimidin-6-yl)amino]phenyl}piperazin-1-yl)carbonyl]benzyl}quinazoline-2,4(1H,3H)-dione] | < 10 nM | –
12 | C=CCn1c(=O)c2cnc(Nc3ccc(N4CCN(C(=O)c5cc(Cn6c(=O)[nH]c(=O)c7c(F)cccc76)ccc5F)CC4)cc3)nc2n1-c1ccccn1 [Compound 28, 1-{3-[(4-{4-[(2-Allyl-3-oxo-1-pyridin-2-yl-2,3-dihydro-1H-pyrazolo[3,4-d]pyrimidin-6-yl)amino]phenyl}piperazin-1-yl)carbonyl]-4-fluorobenzyl}-5-fluoroquinazoline-2,4(1H,3H)-dione] | < 10 nM | –
13 | C=CCn1c(=O)c2cnc(Nc3ccc(N4CCN(Cc5cc(Cn6c(=O)[nH]c(=O)c7c(F)cccc76)ccc5F)CC4)cc3)nc2n1-c1cccc(C(C)(C)O)n1 [Compound 34, 1-[3-({4-[4-({2-Allyl-1-[6-(1-hydroxy-1-methylethyl)pyridin-2-yl]-3-oxo-2,3-dihydro-1H-pyrazolo[3,4-d]pyrimidin-6-yl}amino)phenyl]piperazin-1-yl}methyl)-4-fluorobenzyl]-5-fluoroquinazoline-2,4(1H,3H)-dione] | 100 to 1000 nM | –
14 | C=CCn1c(=O)c2cnc(Nc3ccc(N4CCN(Cc5ccc(-c6[nH]c7cc(F)cc8c7c6CCNC8=O)cc5)CC4)cc3)nc2n1-c1ccccn1 [Compound 39, 2-[4-[[4-[4-[[2-Allyl-3-oxo-1-(2-pyridyl)pyrazolo[3,4-d]pyrimidin-6-yl]amino]phenyl]piperazin-1-yl]methyl]phenyl]-6-fluoro-3,10-diazatricyclo[6.4.1.04,13]trideca-1,4,6,8(13)-tetraen-9-one] | 10 to 100 nM | –
15 | C=CCn1c(=O)c2cnc(NC3CCN(Cc4ccc(-c5[nH]c6cc(F)cc7c6c5CCNC7=O)cc4)CC3)nc2n1-c1cccc(C(C)(C)O)n1 [Compound 47, 2-(4-{[4-({2-Allyl-1-[6-(1-hydroxy-1-methylethyl)pyridin-2-yl]-3-oxo-2,3-dihydro-1H-pyrazolo[3,4-d]pyrimidin-6-yl}amino)piperidin-1-yl]methyl}phenyl)-8-fluoro-1,3,4,5-tetrahydro-6H-azepino[5,4,3-cd]indol-6-one] | < 10 nM | –
16 | Cn1c2nc(Nc3ccc(N4CCC(c5nc6cccc(C(N)=O)c6[nH]5)CC4)cc3)ncc2c(=O)n1-c1ccccn1 [Compound 91] | 10 to 100 nM | –
